Where no end group is shown, it is not given here.
Assays:
HIV-1IIIB = assay: HIV-1 antiviral assay (cytopathic effect) in CEM-SS cells; conditions: for antiviral activity of positive control compounds (HIV-1): CEM-SS cells; for reduction of the cytopathic effect (CPE) in HIV-1 infected CEM-SS cells: 10 micrograms per ml, HIV-1IIIB, 6 days post-infection, MTS
HCMV strain AD169 = assay: HCMV plaque formation assay in MRC-5 cells; conditions: for inhibition of HCMV plaque formation as compared to the virus control: 10 micrograms per ml, 7-10 days
[1] = test system: hepatitis B virus (HBV) ayw strain; assay: HBV experimental assay system (secreted HBV DNA, TaqMan PCR); assay type: cell-based; conditions: 10 micrograms per ml; HepG2-2.2.15; six days; HBV DNA by TaqMan PCR
Source text: HepG2-2.2.15 is a stable cell line containing the hepatitis B virus (HBV) ayw strain genome (ATCC Cat. No. CRL-11997). Antiviral compounds blocking any late step of viral replication such as transcription, translation, pregenome encapsidation, reverse transcription, particle assembly and release can be identified and characterized using this cell line. In this assay, an active compound will reduce the production of secreted HBV from cells, measured by utilizing real time quantitative PCR (TaqMan) assay to directly and accurately measure HBV DNA copies.
HepG2-2.2.15 cells were plated in 96-well microtiter plates. After 16-24 hours the confluent monolayer of HepG2-2.2.15 cells was washed and the medium was replaced with complete medium containing test peptides—10 micrograms per ml—in duplicate. […] Six days following the initial administration of the peptides, the cell culture supernatants was collected, treated with pronase and DNAse and then used in a real-time quantitative TaqMan PCR assay. The PCR-amplified HBV DNA was detected in real-time by monitoring increases in fluorescence signals that result from the exonucleolytic degradation of a quenched fluorescence probe molecule that hybridizes to the amplified HBV DNA. […] Antiviral activity was calculated from the reduction in HBV DNA levels (% virus control). […]

Human A549 cells = assay: Apoptosis prevention assay (C2 ceramide, Annexin-5); assay type: cell-based; conditions: 10 micrograms per ml, 30 min pretreatment
murine spleen cells = assay: Th1/Th2 cytokine profiling assay; assay type: cell-based, Balb/c mice; conditions: 10 micrograms per ml; Ovalbumin restimulation; 72 hours
[2] = test system: Primary Human endothelial cells (HUVEC); assay: Endothelial cell migration assay; assay type: cell-based; conditions: 10 micrograms per ml, 22 hours
HUVEC = assay: Endothelial tube formation assay; assay type: cell-based, human; conditions: 10 micrograms per ml, 20 hours
Streptococcus pneumoniae = Streptococcus pneumoniae assay; conditions: 10 micrograms per ml; 5x10^5 CFU/mL

| Molecule | antiviral activity of positive control compounds (HIV-1) (HIV-1IIIB) | antiviral activity of positive control compound (HCMV) (HCMV strain AD169; positive control) | inhibition of HBV replication as compared to the virus control infection [1] [%] | reduction of the ceramide-induced apoptosis on human lung cells (Human A549 cells) | change of the production of IL-5 in murine spleen cells (murine spleen cells) | decrease of the production of IFN-γ in murine spleen cells (murine spleen cells) | increase of the production of IL-2 in murine spleen cells (murine spleen cells) [%] | increase of the production of IL-4 in murine spleen cells (murine spleen cells) [%] | induction of the production of TNF-alpha in murine spleen cells (murine spleen cells) | inhibition of the migration of human endothelial cells [2] | inhibition of the tube formation of human endothelial cells (HUVEC) | inhibition of the growth of Streptococcus pneumoniae (Streptococcus pneumoniae) | inhibition of HCMV plaque formation as compared to the virus control (HCMV strain AD169) | reduction of the cytopathic effect (CPE) in HIV-1 infected CEM-SS cells (HIV-1IIIB) [%] |
| --- | --- | --- | --- | --- | --- | --- | --- | --- | --- | --- | --- | --- | --- | --- |
| Cc1cn([C@H]2C[C@H](N=[N+]=[N-])[C@@H](CO)O2)c(=O)[nH]c1=O [AZT, zidovudine, reference compound] | expected levels of antiviral activity |  |  |  |  |  |  |  |  |  |  |  |  |  |
| Nc1nc(O)c2ncn(COC(CO)CO)c2n1 [Ganciclovir, reference compound] |  | expected levels of antiviral activity |  |  |  |  |  |  |  |  |  |  |  |  |
| CC[C@H](C)[C@H](NC(=O)[C@H](CCC(=O)O)NC(=O)[C@H](CO)NC(=O)[C@@H](NC(=O)[C@@H](N)CO)C(C)C)C(=O)N[C@@H](CCC(N)=O)C(=O)N[C@@H](CC(C)C)C(=O)N[C@@H](CCSC)C(=O)N[C@@H](Cc1cnc[nH]1)C(=O)N[C@@H](CC(N)=O)C(=O)N[C@@H](CC(C)C)C(=O)NCC(=O)N[C@@H](CCCCN)C(=O)N[C@@H](Cc1cnc[nH]1)C(=O)N[C@@H](CC(C)C)C(=O)N[C@@H](CC(N)=O)C(=O)N[C@@H](CO)C(=O)N[C@@H](CCSC)C(=O)N[C@@H](CCC(=O)O)C(=O)N[C@@H](CCCN=C(N)N)C(=O)N[C@H](C(=O)N[C@@H](CCC(=O)O)C(=O)N[C@@H](Cc1c[nH]c2ccccc12)C(=O)N[C@@H](CC(C)C)C(=O)N[C@@H](CCCN=C(N)N)C(=O)N[C@@H](CCCCN)C(=O)N[C@@H](CCCCN)C(=O)N[C@@H](CC(C)C)C(=O)N[C@@H](CCC(N)=O)C(=O)N[C@@H](CC(=O)O)C(=O)N[C@H](C(=O)N[C@@H](Cc1cnc[nH]1)C(=O)N[C@@H](CC(N)=O)C(=O)N[C@@H](Cc1ccccc1)C(=O)O)C(C)C)C(C)C [Peptide 2] |  |  | 0 | 23.9% | did not significantly change | 31.4% | 80.4 | 35.2 | did not significantly change | no effect | 28% | no effect | did not inhibit | 18.1 |
| CC(C)(C)NC(=O)[C@@H]1CN(Cc2cccnc2)CCN1C[C@@H](O)C[C@@H](Cc1ccccc1)C(=O)N[C@H]1c2ccccc2C[C@H]1O [indinavir, reference compound] | expected levels of antiviral activity |  |  |  |  |  |  |  |  |  |  |  |  |  |
| Gly-Arg-Gly-Asp-Asn-Pro-OH (GRGDNP-OH) [Peptide 1] |  |  | 36.4 | did not reduce | did not significantly change | did not significantly change | 58.8 | 55.6 | 23.7% |  | no effect | 100% | did not inhibit | 100 |
